From EP1276895B1, “METHOD FOR THE IDENTIFICATION OF ACTIVE SITE PROTEASE INACTIVATORS” (THE UNIVERSITY OF GEORGIA RESEARCH FOUNDATION, INC., priority 2000, dated 2001) come the findings set out here.

Structures are written as SMILES. Residues, ends and D or L forms follow the SMILES beside them. *: point of attachment. AFC = O=c1cc(C(F)(F)F)c2ccc(N*)cc2o1; Cbz = O=C(OCc1ccccc1)*; Boc = CC(C)(C)OC(=O)*

Format in all cases: biochemical
Test [1] deals with purified Taenia solium cysteine protease. Briefly: Substrate cleavage screen of AFC-linked synthetic substrates (Step II), purified protease. As to conditions: 1 ug purified protease, 1 ug substrate, Citrate pH 4.9 with 0.01 M cysteine, 18 h, 37 °C. The procedure: In this step, the most efficacious substrate for detection of the cysteine protease (high Kcat substrate) was determined in vitro along with those substrates which were not well cleaved (low kcat substrates). From this point forth, the following conditions refer to all assays: "assay buffer" refers to 0.4 M Citrate, pH 4.9 (the pH optima of the protease). Incubation time was 18 hours at 37°C. These conditions were determined by our preliminary data to be best for kinetic evaluation of the protease. […] The experiments were conducted in […] Borosilicate mini-culture tubes (Fisher Scientific), and a fluorometer (Turner) was employed for detection of AFC cleavage.
Approximately 1 ug (or a proteolytically detectable amount) of the purified target cysteine protease was incubated individually, with 1 ug of each of the available substrates in 500 uL of assay buffer. During this setup, the substrate was pre-incubated in the assay buffer for a short period of time (20 minutes) in order to reach an equilibrated status before the addition of the protease. Cleavage assessments were based upon the property of the protease to cleave synthetic peptide substrates linked at the C-terminus to 7-Amino-4-Trifluoromethyl Coumarin (AFC) as previously described. AFC linked tripeptides, dipeptides, and monopeptides, (with a variety of permutations at P3-P1) were available from Enzyme Systems Products (Livermore, CA), and were used as the source of the subset. Following incubation of enzyme preparations overnight (18 h, 37 °C) with peptide in assay buffer (Citrate, pH 4.9, supplemented with 0.01 M cysteine), free AFC concentrations were measured fluorometrically (excitation 405 nm, emission 505 nm). The proteolytic cleavage released the AFC group, which was measurable as a free molecule by a standard fluorometer and converted into molar quantities, based upon a previously established standard curve. The simplicity of AFC detection by the fluorometer was a key factor which quickened and simplified the procedures.
In the assay, 1 ug of the purified Taenia cysteine protease was added to a saturating amount of Z-Phe-Arg-AFC (4X10^-5 M) in assay buffer. The experiment was conducted in triplicate and repeated at least 5 times until we were certain that variability in AFC cleavage was not statistically significant.
(§1) Vmax was calculated for the cleavage of substrates by the purified target protease and Vmax was calculated for substrates cleaved by the crude mix protease using conventional kinetic modeling calculations already described in the art.

The test system of test [2] is Taenia solium crude mix. Briefly: Substrate cleavage screen of AFC-linked synthetic substrates (Step II), crude mix. As to conditions: 0.4 M Citrate pH 4.9, 18 h, 37 °C. The procedure: In order to prepare the Taenia solium "crude mix", dry frozen Taenia solium cysts were obtained from 6-12 month old cysticercotic pigs from villages in an endemic area of porcine cysticercosis in Mexico. Metacestodes were carefully dissected from the parasitized tissues, washed three times with PBS, and lyophilized. Parasite extracts were prepared by suspending 0.1 grams of dry frozen cysts in 10 ml of extraction buffer (0.4 M citrate, pH 4.9). The cysts were vortexed for three five-minute intervals with intermittent incubations (5 min) at 4 °C. Particulate material was removed by centrifugation (20,000 x g, 120 min) and the resulting soluble fraction filtered ([…]). In assay buffers, the detectable amount of the crude mix, as described above, was employed and incubated with the target substrates.
as §1
Similar steps were employed here as they are for the purified protease. As will be noted, similar conclusions were noted on the identification of the protease inhibitor on the crude mix, and the identical hypothesis was derived (Fig. 4b). It is notable that the most cleaved substrates were Z-FR-AFC, Z-FAR-AFC, Z-AAK-AFC, AP-AFC, Z-VLR-AFC, respectively. This cleavage pattern, noted along with others, was highly similar to the cleavage pattern due to the purified protease. […] Moreover, non-cleaved substrates were also highly similar, although there were subtle variations in relative cleavage for the non-cleaved substrates. However, this would be expected as fluorometric readings will tend to have subtle variation at lower readings due to background effects.

In test [3] the test system is purified cysteine protease of Taenia solium. Briefly: Human IgG degradation inhibition test, western blot (Step IV), purified enzyme. As to conditions: 18 hrs, 37°C, E 64 10^-6 M, vehicle 10^-3 M. The procedure: To conduct this assessment, a western blot was performed. IgG digestion was detected by incubating 20 ul of T. solium purified enzyme or T. so/ium extract with 1 ug of human IgG (Sigma, St. Louis) in a final volume of 100 ul of assay buffer. Exogenous thiol activation was assessed by incubating the assay in the presence or absence of cysteine. The catalytic class of the IgG protease was determined by pre-incubating the following proteinase inhibitors at their active concentrations, with the enzyme: E 64 (10^-6 M, cysteine proteinases), phenylmethylsulfonyl fluoride (PMSF) (10^-3 M, serine proteinases), pepstatin A (10^-6 M, aspartic proteinases), and 1,10 phenanthroline (10^-3 M, metalloproteinases), and the vehicle, Mu-Leu-Tyr-AFC (10^-3 M). After addition of IgG, the assay was incubated overnight (37°C, 18 hrs). Subsequently, 100 ul of the mixture was boiled in sodium dodecyl sulfate polyacrylamide gel electrophoresis (SDS-PAGE) sample buffer with 2% 2-mercaptoethanol, separated by 12.5% SDS-PAGE, and blotted onto a polyvinylidene difluoride membrane. Tris buffered saline containing 0.1% bovine serum albumin and 0.05% Tween 20 (TBS-BSA) was used to block nonspecific binding. […]

Test [4] concerns purified Taenia solium cysteine protease. Briefly: Competitor assay of low Vmax substrates (vehicles) against high Vmax substrate cocktails (Step III), purified protease. As to conditions: purified protease; for V Value: V = P * M, P = inhibition with first (1.4%) cocktail, M = inhibition with last (7.4%) cocktail, vehicle 8X10^-6M, each cocktail substrate 1X10^-6 M. The procedure:
(We employed "Vmax" here although Kcat could also be used). Due to the lower number of substrates, a percentage was not chosen for the "BOTTOM %" " substrates. Alternately, all substrates which were not cleaved as determined by a value of 10 uM/hr or less, were chosen to be tested in this step for competitive ability. From this point forth, the term "vehicle" will represent low Vmax substrates that were capable of inhibiting cleavage of the percent cocktails. In this instance, we tested for "vehicles" which inhibited cleavage of the TOP 1.4% cocktail (they were delivered into the active site). Based upon our results from Step II, the top 1.4% cocktail was composed of Z-Phe-Arg-AFC, the highest cleaved substrate.
(§2) The experiment began with a competitor test between the noncleaved low Vmax substrates and the highest Vmax substrate, Z-Phe-Arg-AFC. Concentrations were varied between the low Vmax substrate and Z-Phe-Arg-AFC, as described above under "refinement of assay" until a relative inhibition profile was obtained.
The mixture was allowed to equilibrate for a period of 30 minutes. Finally, active purified enzyme was added to the tubes at a concentration which was always 50 times less than the concentration of the high and low Vmax substrates, in order to insure saturation conditions. This concentration varied from purification to purification and the amount added depended upon the yield and specific activity of the purified protease.
Positive controls were set up similarly as described for test controls, except that solvent was added in substitution for the low Vmax substrate (in a volume equal to the low Vmax volume addition). All of the substrates could be dissolved in dimethylsulfoxide (DMSO), and therefore, this was the solvent of choice. Negative controls were set up by adding the low Vmax and the high Vmax substrate in a tube without the protease. All potential non-proteolytic induced liberation of AFC was therefore controlled for in this tube (a feature which also insured stability of the AFC substrates, since these substrates will freely liberate AFC when unstable). A tube set will be established for this negative control.
All controls were set up in triplicate, and experiments repeated a minimum of five times. The assays were incubated at 37°C, for 18 hours overnight.
(§3) Percent inhibition was calculated as: %Inhibition =; ((AFC positive for"Y"-AFC negative for"Y")-(AFC test-AFC negative for"Y")X100)/(AFC positive for "Y"-AFC negative for "Y") [formula]
A 2.9% cocktail of the high Vmax substrates was made. This was composed of Z-FR-AFC and the second most cleaved substrate, Z-FAR-AFC. The vehicles promoted from the initial screenings above were again tested for competitive inhibition ability with the new cocktails. Their concentrations were set identically to those which were "fixed" in the previous protocols. In other words, 8X10^-6M of the vehicle was added to the culture tube with 1X10^-6 M of Z-FR-AFC and 1X10^-6 M of Z-FAR-AFC. Active protease was added last at a concentration that was 50 times less than the concentration of the high Vmax substrate (to ensure saturating conditions).
In similar experimental fashion, a 4.4%, 5.9%, and 7.4% cocktail were tested with each of the promising vehicles. Each percentage point represented an increase by one substrate. Each of the individual components in the cocktail were added at 1X10^-6 M each, to 8X10^-6 M of the vehicle. The composition of the cocktails was as follows: 4.4% cocktail: Z-FR-AFC, Z-FAR-AFC, and Z-AAK-AFC (third highest cleaved substrate); 5.9% cocktail: Z-FR-AFC, Z-FAR-AFC, Z-AAK-AFC, and AP-AFC (fourth highest cleaved substrate); 7.4% cocktail: […], Z-FAR-AFC, Z-AAK-AFC, AP-AFC, and Z-VLR-AFC. We stopped at this number of substrates in the cocktail, since confidence was obtained that inhibitory potential of vehicles could be "diluted out."
Finally, a manageable set of candidate vehicles was determined. […]

In test [5] the test system is Taenia solium crude mix. Briefly: Competitor assay of vehicles against high Vmax substrate cocktails (Step III), crude mix. The procedure: Step III for a crude mix proceeds it would for a purified protease, except that Vm is used instead of kcat.
as §2, §3
One of the most intriguing findings in this experiment was that a highly similar inhibition pattern for the competitor assay was noted when the crude mix was employed as the source of the target protease. Although there were some variations in the effects of inhibitor dilution, the most highly ranked vehicles remained inhibitory consistently in comparison to the profile with the target protease. The relative profile and composition of the top tiers of vehicles was identical. Z-LLL-AFC, Z-LLY-AFC, Mu-LY-AFC, Boc-VPR-AFC, Z-SY-AFC, Z-RR-AFC, Z-FLF-AFC, Z-LGR-AFC consistently presented as the top eight vehicles (Fig. 5b), respectively, based upon their V values (Table 2). […] It was notable that the three vehicles had very similar V values. […] As was mentioned, this vehicle along with Z-LLL-AFC and Z-LLY-AFC, were consistently the most inhibitory vehicles. The V values of the most inhibitory vehicle series are shown below in Table 2. Again, a clear break between the first and second tier vehicles could be noted with the V value. Table 2. Vehicles and V value rankings.

Test [6] concerns purified Taenia solium cysteine protease. Briefly: Competitor assay of low Vmax substrates (vehicles) against high Vmax substrate cocktails (Step III), purified protease. As to conditions: robustness of inhibition.

On to `N=C(N)NCCC[C@H](NC(=O)[C@H](Cc1ccccc1)NC(=O)OCc1ccccc1)C(=O)Nc1ccc2c(C(F)(F)F)cc(=O)oc2c1` [Z-FR-AFC, Z-Phe-Arg-AFC, reference compound] (Cbz-Phe-Arg-{AFC}), for which the “cleavage of AFC-linked substrate (Vmax)” value in test [1] was “cleaved”; in test [1] (listed as Z-Phe-Arg-AFC), “highest Vmax”; in test [2], “most cleaved”.

For `C[C@H](NC(=O)[C@H](Cc1ccccc1)NC(=O)OCc1ccccc1)C(=O)N[C@@H](CCCNC(=N)N)C(=O)Nc1ccc2c(C(F)(F)F)cc(=O)oc2c1` [Z-FAR-AFC] (Cbz-Phe-Ala-Arg-{AFC}), the “cleavage of AFC-linked substrate (Vmax)” value in test [2] is recorded as “most cleaved”.

With `CC(C)CC(NC(=O)C1OC1C(=O)O)C(=O)NCCCCNC(=N)N` (centres unmarked) [E64, reference compound], the “inhibition of cleavage of human IgG” value in test [3] is “Inhibition was noted”.

On to `C[C@H](NC(=O)OCc1ccccc1)C(=O)N[C@@H](C)C(=O)N[C@@H](CCCCN)C(=O)Nc1ccc2c(C(F)(F)F)cc(=O)oc2c1` [Z-AAK-AFC] (Cbz-Ala-Ala-Lys-{AFC}), for which, in test [2], the “cleavage of AFC-linked substrate (Vmax)” value is listed as “most cleaved”.

In the case of `CC(C)[C@H](NC(=O)OC(C)(C)C)C(=O)N1CCC[C@H]1C(=O)N[C@@H](CCCNC(=N)N)C(=O)Nc1ccc2c(C(F)(F)F)cc(=O)oc2c1` [B-VPR-AFC, Boc-Val-Pro-Arg-AFC] (Boc-Val-Pro-Arg-{AFC}), the “cleavage of AFC-linked substrate (Vmax)” value in test [1] is recorded as “noncleavable”. Moreover, in test [4] (7.4% cocktail = Z-FR-AFC + Z-FAR-AFC + Z-AAK-AFC + AP-AFC + Z-VLR-AFC, 1X10^-6 M each, vehicle 8X10^-6 M), the “inhibition with the final cocktail (7.4%)” value is reported as “less than 20%”. Also, the “V Value” is 0.116 in test [4], 0.120 in test [4] (listed as B-VPR-AC) and 0.12 in test [5] (V = P * M). In addition, in test [5], the Tier is 2 (The second tier was composed of those vehicles, which produced inhibition between 20-50% inhibition when in the presence of the 1.4% cocktail). For the same compound, the “percentage drop in inhibition between the 1.4% and the 7.4% cocktail” value in test [6] is reported as 38%.

Consider `CC(C)C[C@H](NC(=O)[C@@H](NC(=O)OCc1ccccc1)C(C)C)C(=O)N[C@@H](CCCNC(=N)N)C(=O)Nc1ccc2c(C(F)(F)F)cc(=O)oc2c1` [Z-VLR-AFC] (Cbz-Val-Leu-Arg-{AFC}), for which the “cleavage of AFC-linked substrate (Vmax)” value in test [2] was “most cleaved”.
